Where “and” joins values, the source holds several entries; their conditions need not be identical. Equal values may be shown once.
Key:
[1] = test system: Capan-2 (KRAS^G12V/WT, PDAC) xenograft; experiment: Subcutaneous xenograft antitumor activity; format: in vivo, mouse; details: for Tumor Volume: Capan-2 Tumor Volume Data
Experimental: (§1) To generate subcutaneous CDX, each mouse was inoculated at the right flank with tumor cells (2 × 10^6 − 1 × 10^7) in 100 to 200 µL of media/PBS Supplemented with Matrigel. Treatments were initiated when average tumor volume reached 130 to 200 mm^3 for tumor growth evaluation and 350 to 650 mm^3 for single-dose pharmacokinetic/pharmacodynamic (PK/PD). Tumor diameter was measured in two dimensions using a digital caliper, and the tumor volume in mm^3 was calculated using the formula: Volume = ((width)^2 × length)/2. Mice in the study were weighed and tumors were measured twice weekly.
(§2) Tumor-bearing animals were randomized and assigned into groups (n = 1–10/group). The vehicle at 10 mL/kg or RMC-6236 at indicated doses was administered via oral gavage daily, and animals were treated for 28 days, or up to 90 days if PFS was being assessed. […] For single-dose PKPD study, mice were randomized and assigned into groups (n = 3/dose/time point). A single dose of RMC-6236 was administered orally at either 3, 10, or 25 mg/kg. Blood and tissues, including the tumor, brain, colon, ear skin, and muscle, were harvested at indicated time points. Whole blood was collected in K2EDTA Microtainer tubes, incubated for 5 minutes, and snap-frozen in liquid nitrogen. The tissue was either fixed in 10% formalin or snap-frozen in liquid nitrogen for further analysis.
(§3) In tumor volume plots, the average tumor volume of each group was plotted over the course after implantation (except for PDX models, where the x-axis started on the first day of treatment). Control and RMC-6236 groups were compared by two-way repeated-measures ANOVA on the last measurement day of the control group. Percentage change in body weight for each animal on a given day was determined as [(body weight on test article administration end date/body weight on test article administration start date) −1] × 100. The percentage mean tumor volume change from baseline was graphed in the waterfall plots. The mRECIST score was determined based on % mean tumor volume change, mCR is more than 80% regression, mPR is between 30% and 80% regression, mSD is between 30% growth and 30% regression, mPD is more than 30% growth. Progression is defined as tumor volume doubling from baseline and represented with Kaplan–Meier plots. Log-rank test was used to compare vehicle control with treatment groups. Cox Proportional Hazards models were used to estimate hazard ratios between vehicle control and treatment groups. Tumor relapse was defined here as models that were considered mPR or mCR at the response calling date and then rebounded from mean tumor volume regressions to either stable disease or progression when dosed long-term (more than 60 days).

[2] = test system: NCI-H2122 (KRAS^G12C/G12C, NSCLC) xenograft; experiment: Subcutaneous xenograft antitumor activity; format: in vivo, mouse; details: NCI-H2122 (25 mg/kg)
Experimental: as §1, §2, §3

[3] = test system: DUSP6 mRNA in NCI-H441 xenograft tumors; experiment: In vivo PD by DUSP6 qPCR and PK/PD relationship; parameters: species or system mouse; details: for % inhibition of DUSP6 vs control: NCI-H441 xenograft tumor
Experimental: as §2
RNA was extracted from at least 20 mg of tissue using an RNeasy Mini Kit (Qiagen, 74104) and a High-Throughput Tissue grinder following the manufacturer's protocol. Reverse transcription was carried out using High-Capacity cDNA Reverse Transcription Kit (ABI, 4368814) according to the manufacturer's protocol. The cDNA product was used for qPCR analysis using TaqMan Gene-Expression Master Mix (ABI, 4369016). TaqMan primer probes specific to DUSP6 (human—Hs00737962_m1, murine—Mm00518185_m1, FAM-MGB) and 18S (RNA18S1; human—Hs99999901_s1, murine—Mm03928990_g1, FAM-MGB, used as an internal control gene) were used to detect the levels from each sample in duplicates using a 10 µL final reaction volume in a 384-well clear optical reaction plate. For qPCR, Ct values of DUSP6 and 18S were obtained for analysis. DUSP6 Ct value was normalized to 18S, and then the mean relative mRNA expression levels of each group were normalized to the vehicle control group. Values were plotted as relative change in mRNA expression compared with vehicle. Means ± SEM were shown.
Concentrations of RMC-6236 in tumor or normal tissues and percentage of DUSP6 inhibition as compared with the vehicle control from individual animals were collected and analyzed post a single dose of RMC-6236 ranging from 0.3 to 100 mg/kg (Supplementary Table S6). A 3-parameter sigmoidal exposure–response model was fitted to the data in GraphPad Prism to derive EC50 and EC90 values.

## CCn1c(-c2cc(N3CCN(C)CC3)cnc2[C@H](C)OC)c2c3cc(ccc31)-c1csc(n1)C[C@H](NC(=O)[C@H]1C[C@@H]1C)C(=O)N1CCC[C@H](N1)C(=O)OCC(C)(C)C2 [RMC-6236]
[1]; Capan-2 (10 mg/kg)
  Anti-Tumor Activity (% regression): 13%
[1]; Capan-2 (25 mg/kg)
  Anti-Tumor Activity (% regression): 53.0%
[1]; Capan-2, 10 mg/kg daily, 4 weeks
  mean tumor regression: 13%
[1]; 10mg/kg_Capan2, dose every 24 h, 0 h (baseline)
  Tumor Volume: 166.375 mm^3
[1]; 10mg/kg_Capan2, dose every 24 h, 48 h
  Tumor Volume: 174.875 mm^3
[1]; 10mg/kg_Capan2, dose every 24 h, 144 h
  Tumor Volume: 156.5 mm^3
[1]; 10mg/kg_Capan2, dose every 24 h, 384 h
  Tumor Volume: 177.25 mm^3
[1]; 10mg/kg_Capan2, dose every 24 h, 480 h
  Tumor Volume: 157.5 mm^3
[1]; 10mg/kg_Capan2, dose every 24 h, 552 h
  Tumor Volume: 152.125 mm^3
[1]; 25mg/kg_Capan2, dose every 24 h, 0 h (baseline)
  Tumor Volume: 166.375 mm^3
[1]; 25mg/kg_Capan2, dose every 24 h, 48 h
  Tumor Volume: 154.875 mm^3
[1]; 25mg/kg_Capan2, dose every 24 h, 144 h
  Tumor Volume: 132.75 mm^3
[1]; 25mg/kg_Capan2, dose every 24 h, 384 h
  Tumor Volume: 105 mm^3
[1]; 25mg/kg_Capan2, dose every 24 h, 480 h
  Tumor Volume: 90.25 mm^3
[1]; 25mg/kg_Capan2, dose every 24 h, 552 h
  Tumor Volume: 86.875 mm^3
[2]
  Anti-Tumor Activity, %TGI: 99.64 %TGI
[3]; Model Development Dataset, 25mg/kg_study8, 1 h
  DUSP6 mRNA Expression (%): 30.3376%
[3]; Model Development Dataset, 25mg/kg_study8, 2 h
  DUSP6 mRNA Expression (%): 11.6899%
[3]; Model Development Dataset, 25mg/kg_study8, 8 h
  DUSP6 mRNA Expression (%): 1.524%
[3]; Model Development Dataset, 25mg/kg_study8, 24 h
  DUSP6 mRNA Expression (%): 8.817%
[3]; Model Development Dataset, 25mg/kg_study8r (doses every 24 h, 0-[…]), 240 h
  DUSP6 mRNA Expression (%): 3.766%
[3]; Model Development Dataset, 40mg/kg_study8, 1 h
  DUSP6 mRNA Expression (%): 65.2423%
[3]; Model Development Dataset, 40mg/kg_study8, 2 h
  DUSP6 mRNA Expression (%): 13.6285%
[3]; Model Development Dataset, 40mg/kg_study8, 8 h
  DUSP6 mRNA Expression (%): 4.661%
[3]; Model Development Dataset, 40mg/kg_study8, 24 h
  DUSP6 mRNA Expression (%): 3.474%
[3]; Model Development Dataset, 40mg/kg_study8r (doses every 24 h, 0-[…]), 240 h
  DUSP6 mRNA Expression (%): 0.8569%
[3]; Model Validation Dataset, 10mg/kg_study6, 1 h
  DUSP6 mRNA Expression (%): 45.187%
[3]; Model Validation Dataset, 10mg/kg_study6, 8 h
  DUSP6 mRNA Expression (%): 5.053%
[3]; Model Validation Dataset, 10mg/kg_study6, 24 h
  DUSP6 mRNA Expression (%): 13.225%
[3]; Model Validation Dataset, 10mg/kg_study6, 48 h
  DUSP6 mRNA Expression (%): 62.867%
[3]; Model Validation Dataset, 25mg/kg_study6, 1 h
  DUSP6 mRNA Expression (%): 48.7936%
[3]; Model Validation Dataset, 25mg/kg_study6, 8 h
  DUSP6 mRNA Expression (%): 5.7726%
[3]; Model Validation Dataset, 25mg/kg_study6, 24 h
  DUSP6 mRNA Expression (%): 9.122%
[3]; Model Validation Dataset, 25mg/kg_study6, 48 h
  DUSP6 mRNA Expression (%): 14.7114%
[3]; Model Validation Dataset, 25mg/kg_study6, 72 h
  DUSP6 mRNA Expression (%): 12.5199%
[3]; Model Validation Dataset, 50mg/kg_study6, 1 h
  DUSP6 mRNA Expression (%): 16.7798%
[3]; Model Validation Dataset, 50mg/kg_study6, 8 h
  DUSP6 mRNA Expression (%): 5.52%
[3]; Model Validation Dataset, 50mg/kg_study6, 24 h
  DUSP6 mRNA Expression (%): 5.873%
[3]; Model Validation Dataset, 50mg/kg_study6, 48 h
  DUSP6 mRNA Expression (%): 10.9912%
[3]; Model Validation Dataset, 50mg/kg_study6, 72 h
  DUSP6 mRNA Expression (%): 10.0613%
[3]; Mus musculus, NCI-H441, read-out: EC50, inhibition of DUSP6 expression vs RMC-6236 concentration (PK/PD relationship)
  EC50: 117 nM
[3]; Mus musculus, NCI-H441, read-out: EC90, inhibition of DUSP6 expression vs RMC-6236 concentration (PK/PD relationship)
  EC90: 1120 nM
[3]; study NCI-H441#6, 10 mg/kg, 8h
  % inhibition of DUSP6 vs control: 94.3996% and 97.36% and 93.0812%
[3]; study NCI-H441#6, 10 mg/kg, 24h
  % inhibition of DUSP6 vs control: 92.8123% and 75.0577% and 92.455%
[3]; study NCI-H441#6, 25 mg/kg, 8h
  % inhibition of DUSP6 vs control: 92.2964% and 95.8141% and 94.5716%
[3]; study NCI-H441#6, 25 mg/kg, 24h
  % inhibition of DUSP6 vs control: 90.5813% and 91.1816% and 90.8706%
[3]; study NCI-H441#6, 25 mg/kg, 48h
  % inhibition of DUSP6 vs control: 88.2424% and 92.0524% and 75.571%
[3]; study NCI-H441#6, 50 mg/kg, 8h
  % inhibition of DUSP6 vs control: 94.9176% and 94.1618% and 94.3607%
[3]; study NCI-H441#6, 50 mg/kg, 24h
  % inhibition of DUSP6 vs control: 95.6815% and 94.6463% and 92.0524%
[3]; study NCI-H441#6, 50 mg/kg, 48h
  % inhibition of DUSP6 vs control: 89.9053% and 88.838% and 88.2831%
[3]; study NCI-H441#6, 100 mg/kg, 8h
  % inhibition of DUSP6 vs control: 96.2144% and 97.8257% and 94.7565%
[3]; study NCI-H441#6, 100 mg/kg, 24h
  % inhibition of DUSP6 vs control: 96.5645% and 97.2858% and 99.0371%
[3]; study NCI-H441#6, 100 mg/kg, 48h
  % inhibition of DUSP6 vs control: 97.3783% and 95.7557% and 95.9427%
[3]; study NCI-H441#8, 25 mg/kg, 2h
  % inhibition of DUSP6 vs control: 93.3108% and 86.9874% and 84.6322%
[3]; study NCI-H441#8, 25 mg/kg, 8h
  % inhibition of DUSP6 vs control: 99.2306% and 96.8685% and 99.3302%
[3]; study NCI-H441#8, 25 mg/kg, 24h
  % inhibition of DUSP6 vs control: 93.9294% and 85.711% and 93.9083%
[3]; study NCI-H441#8, 40 mg/kg, 2h
  % inhibition of DUSP6 vs control: 77.4222% and 82.1626% and 99.5296%
[3]; study NCI-H441#8, 40 mg/kg, 8h
  % inhibition of DUSP6 vs control: 94.9481% and 94.7152% and 96.3527%
[3]; study NCI-H441#8, 40 mg/kg, 24h
  % inhibition of DUSP6 vs control: 94.2767% and 98.3791% and 96.9223%
[3]; study NCI-H441#10, 0.3 mg/kg, 8h
  % inhibition of DUSP6 vs control: 46.2112% and 70.874% and 74.5563%
[3]; study NCI-H441#10, 0.3 mg/kg, 48h
  % inhibition of DUSP6 vs control: 38.4266% and 52.8484% and 73.0122%
[3]; study NCI-H441#10, 1 mg/kg, 48h
  % inhibition of DUSP6 vs control: 52.6847% and 48.936% and 65.7214%
[3]; study NCI-H441#10, 10 mg/kg, 8h
  % inhibition of DUSP6 vs control: 85.6375% and 96.6614% and 94.5007%
[3]; study NCI-H441#10, 10 mg/kg, 24h
  % inhibition of DUSP6 vs control: 85.7861% and 76.2602% and 81.9462%
[3]; study NCI-H441#10, 10 mg/kg, 48h
  % inhibition of DUSP6 vs control: 44.699% and 49.9869% and 60.6243%
[3]; study NCI-H441#13, 0.3 mg/kg, 8h
  % inhibition of DUSP6 vs control: 54.8539% and 55.936% and 78.3465%
[3]; study NCI-H441#13, 1 mg/kg, 2h
  % inhibition of DUSP6 vs control: 47.4169% and 56.5427% and 69.4833%
